Data: paper PMC12029982, “The Mechanism of a Novel Mitochondrial-Targeted Icaritin Derivative in Regulating Apoptosis of BEL-7402 Cells Based on the SIRT3 and CypD-Mediated ROS/p38 MAPK Signaling Pathway” (Molecules, 2025)
“Also recorded” adds a separate entry of the source.

How the values were obtained:
[1] = tested on: mitochondria of BEL-7402 cells; experiment: HPLC analysis of accumulation in mitochondria; format: cell-based, human; conditions: 10 μM
Method: BEL-7402 cells were cultured in 100 mm Petri dishes. When the cell density reached 90%, the cells were treated with different drugs, all at the same concentration (ICT and Mito-ICT-4 were both set at 10 μM). After 9 h of drug treatment, intracellular mitochondria were isolated from the different drug-treated groups using a mitochondrial isolation kit (Beyotime, Nanjing, China). The mitochondria were resuspended in 200 μL of phosphate-buffered saline (PBS), and an equal volume of anhydrous dichloromethane was added. Ultrasonic extraction was performed three times, and the lower organic phase was collected. Dichloromethane was removed, and the sample was resuspended in 200 μL of 0.1% formic acid in methanol. A 20 μL sample was analyzed and quantified by HPLC. HPLC analysis was conducted using an ALLTECH 26-201 (Jerome, CA, USA) with a flow rate of 1 mL/min. The stationary phase was Agilent ZORBAX SB-C18 (250 mm × 4.6 mm, 5 μm, Santa Clara, CA, USA), and the mobile phase consisted of methanol-0.1% formic acid in water (80:20).

SIRT3 = experiment: qRT-PCR; format: cell-based, human; conditions: vs blank control, BEL-7402, p < 0.05
Method: (§1) Total RNA was extracted from BEL-7402 cells before and after Mito-ICT-4 treatment using the Trizol method. The RNA was then reverse transcribed and used for quantitative real-time PCR (qRT-PCR) analysis. All gene sequences were obtained from the official website of NCBI (http://ncbi.nlm.nih.gov, accessed on 16 December 2023), and primers were designed and synthesized by Sangon Biotech. β-actin was used as an internal reference. To each well, 10 µL of 2 × SGExcel FastSYBR (Sangon Biotech, Shanghai, China) mixture was added, along with 0.4 µL each of forward and reverse primers (F/R), followed by 2 µL of cDNA. The volume was then adjusted to 20 µL with water. The qRT-PCR amplification procedure included the following steps: pre-denaturation at 95 °C for 3 min, denaturation at 95 °C for 15 s, and annealing at 60 °C for 45 s. A total of 45 cycles were performed. Fluorescence signals were collected from 60 °C to 95 °C using an ABI 7500 fluorescence quantitative PCR instrument (ABI, Waltham, MA, USA). Gene expression was calculated using the 2^−ΔΔCt method.

MKK6 = experiment: qRT-PCR; format: cell-based, human; conditions: vs blank control, BEL-7402, p < 0.05
Method: as §1

DDIT3 = experiment: qRT-PCR; format: cell-based, human; conditions: vs blank control, BEL-7402, p < 0.05
Method: as §1

P38 = experiment: qRT-PCR; format: cell-based, human; conditions: vs blank control, BEL-7402, p < 0.05
Method: as §1

CypD = experiment: qRT-PCR; format: cell-based, human; conditions: vs blank control, BEL-7402, p < 0.05
Method: as §1

PC-3M = experiment: MTT assay, antiproliferative activity; format: cell-based; conditions: Homo sapiens, 48 h drug exposure, mean ± SD
Method: (§2) Human cancer cell lines BEL-7402, A549, MCF-7, PC-3M, and normal renal cell line HEK293 were bought from the BeNa Culture Collection (Beijing, China). BEL7402, A549, and PC-3M were cultured in RPMI 1640 medium (Gibco, Carlsbad, CA, USA). MCF-7 and HEK293 were cultured in the DMEM medium (Gibco, CA, USA). The medium was supplemented with 10% fetal bovine serum (FBS) (CLARK, San Diego, CA, USA), 100 U/mL penicillin, and 0.1 mg/mL streptomycin (Beyotime, Nanjing, China). The cells were incubated in 5% CO2 at 37 °C.
(§3) The MTT assay was employed to assess the inhibitory effect of each compound on cell growth. A549, PC-3M, MCF-7, BEL-7402, and HEK293 cells in the logarithmic growth phase were seeded in 96-well culture plates at an inoculum density of 5 × 10^4 cells/mL. After overnight incubation at 37 °C in a 5% CO2 atmosphere, the cells fully adhered to the surface. Different concentrations of sample solutions (0, 3.125, 6.25, 12.5, 25, 50, 100 μmol/L) were added (100 μL) to treat the cells. After 48 h of drug treatment, 10 μL of a 5 mg/mL MTT solution was added to each well and incubated for 4 h at 37 °C. The supernatant was then discarded, and 150 μL of DMSO was added to dissolve the formazan. The mixture was shaken at room temperature for 15 min, and the absorbance (D) value was measured at 490 nm using a Microplate Reader (HBS-ScanY, Nanjing, China). The drug IC50 values were calculated using GraphPad Prism (v10.0). Each cell viability experiment was performed in triplicate.

MCF-7 = experiment: MTT assay, antiproliferative activity; format: cell-based; conditions: Homo sapiens, MCF7, 48 h drug exposure, mean ± SD
Method: as §2, §3

A549 = experiment: MTT assay, antiproliferative activity; format: cell-based; conditions: Homo sapiens, 48 h drug exposure, mean ± SD
Method: as §2, §3

BEL-7402 = experiment: MTT assay, antiproliferative activity; format: cell-based; conditions: Homo sapiens, 48 h drug exposure, mean ± SD
Method: as §2, §3

BEL-7402 cells [2] = experiment: JC-1 staining, mitochondrial membrane potential; format: cell-based, human; conditions: JC-1, 0.625, 1.25, 2.5 μmol/L, 48 h
Method: Drug grouping and administration were performed as described in Section 2.5. After 48 h of incubation, 500 μL of JC-1 fluorescent dye (Beyotime, Nanjing, China) was added to each well. The cells were stained at 37 °C for 30 min, after which the dye was discarded. The cells were then washed three times with PBS and observed under an inverted fluorescence microscope.

BEL-7402 cells [3] = experiment: DAPI staining, apoptosis; format: cell-based, human; conditions: 0.625, 1.25, 2.5 μmol/L, 48 h
Method: BEL-7402 cells in the logarithmic growth phase were seeded in 12-well plates at a density of 1 × 10^5 cells/well. After overnight incubation, the cells were treated with different concentrations of Mito-ICT-4 (0.625, 1.25, and 2.5 μmol/L), and a control group was included. After 48 h of incubation, the cells were fixed with 4% histocyte fixative (Solarbio, Beijing, China) at room temperature for 15 min. After fixation, 500 μL of DAPI staining solution (Solarbio, Beijing, China) was added to each well and incubated at 37 °C for 20 min. The cells were then observed under an inverted fluorescence microscope (EVOS M5000, Waltham, MA, USA).

`COc1ccc(-c2oc3c(CC=C(C)C)c(OC(=O)CCCCCCCCCC[P+](c4ccccc4)(c4ccccc4)c4ccccc4)cc(O)c3c(=O)c2O)cc1` [Mito-ICT-4] was tested, and the “fate after entering the mitochondria” value [1] was “hydrolysis to ICT; also recorded: hydrolyzed to ICT”, the “accumulation in mitochondria relative to ICT” value ([1]; 9 h) was “approximately 2.5 times” and the “SIRT3 gene expression level” value (SIRT3) was “significantly downregulated”. For the same compound, the “MKK6 gene expression level” value (MKK6) was “significantly downregulated”, the “DDIT3 gene expression level” value (DDIT3) was “significantly upregulated” and the “P38 gene expression level” value (P38) was “significantly downregulated”. The “CypD gene expression level” value (CypD) was “significantly upregulated”, the IC50 (PC-3M) was 11.3 ± 1.55 µM and the IC50 (MCF-7) was 10.8 ± 1.2 µM. For the same compound, the IC50 (A549) was 5.15 ± 0.59 µM, the IC50 (BEL-7402) was 0.73 ± 0.06 µM and the mitochondrial membrane potential (BEL-7402 cells [2]) was “reduction”. For the same compound, the “nuclear morphology, DAPI staining” value (BEL-7402 cells [3]) was “nuclei exhibited crumpling and cleavage”.
